Test results as given in PubChem BioAssay (NCI).
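Results reflect a 48-hour exposure of cells in 96-well plates to compound at five concentrations. GI50 = concentration required for 50% inhibition of growth. At the TGI there is no net growth.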

Assays:
Assay in all cases: DTP human tumour cell line panel, 48 h
UACC-62 melanoma = test system: UACC-62 melanoma
HCC-2998 colon = test system: HCC-2998 colon
OVCAR-4 ovarian = test system: OVCAR-4 ovarian
SK-MEL-5 melanoma = test system: SK-MEL-5 melanoma
M14 melanoma = test system: M14 melanoma
IGROV1 ovarian = test system: IGROV1 ovarian
SK-OV-3 ovarian = test system: SK-OV-3 ovarian
MALME-3M melanoma = test system: MALME-3M melanoma
UACC-257 melanoma = test system: UACC-257 melanoma
LOX IMVI melanoma = test system: LOX IMVI melanoma
KM12 colon = test system: KM12 colon
CCRF-CEM leukemia = test system: CCRF-CEM leukemia
DU-145 prostate = test system: DU-145 prostate
RPMI-8226 leukemia = test system: RPMI-8226 leukemia
CAKI-1 renal = test system: CAKI-1 renal
SK-MEL-28 melanoma = test system: SK-MEL-28 melanoma
U251 CNS = test system: U251 CNS
MDA-MB-231 breast = test system: MDA-MB-231 breast
HCT-15 colon = test system: HCT-15 colon
OVCAR-5 ovarian = test system: OVCAR-5 ovarian
HT29 colon = test system: HT29 colon
SW-620 colon = test system: SW-620 colon
UO-31 renal = test system: UO-31 renal
NCI-H522 lung = test system: NCI-H522 lung
A498 renal = test system: A498 renal
NCI-H23 lung = test system: NCI-H23 lung
T-47D breast = test system: T-47D breast
RXF 393 renal = test system: RXF 393 renal
OVCAR-3 ovarian = test system: OVCAR-3 ovarian
A549 NSCLC = test system: A549 NSCLC
NCI/ADR-RES ovarian = test system: NCI/ADR-RES ovarian
HOP-62 NSCLC = test system: HOP-62 NSCLC
SK-MEL-2 melanoma = test system: SK-MEL-2 melanoma
SNB-19 CNS = test system: SNB-19 CNS
HCT-116 colon = test system: HCT-116 colon
ACHN renal = test system: ACHN renal
SN12C renal = test system: SN12C renal
NCI-H226 lung = test system: NCI-H226 lung
NCI-H460 lung = test system: NCI-H460 lung
MOLT-4 leukemia = test system: MOLT-4 leukemia
OVCAR-8 ovarian = test system: OVCAR-8 ovarian
HOP-92 NSCLC = test system: HOP-92 NSCLC
HS 578T breast = test system: HS 578T breast
SR leukemia = test system: SR leukemia
MDA-MB-435 = test system: MDA-MB-435
SNB-75 CNS = test system: SNB-75 CNS
SF-295 CNS = test system: SF-295 CNS
K-562 leukemia = test system: K-562 leukemia
HL-60(TB) leukemia = test system: HL-60(TB) leukemia
SF-539 CNS = test system: SF-539 CNS
SF-268 CNS = test system: SF-268 CNS
EKVX NSCLC = test system: EKVX NSCLC
COLO 205 colon = test system: COLO 205 colon
MCF7 breast = test system: MCF7 breast
BT-549 breast = test system: BT-549 breast
PC-3 prostate = test system: PC-3 prostate
TK-10 renal = test system: TK-10 renal

For `COc1ccc2cnc(N)c(C#Cc3cc(C(=O)Nc4ccc(CN5CCN(C)CC5)c(C(F)(F)F)c4)cnc3C)c2c1`, the GI50 (UACC-62 melanoma) was 190 nM, the TGI (UACC-62 melanoma) was 4200 nM and the GI50 (HCC-2998 colon) was greater than 37200 nM. It also gave a TGI (HCC-2998 colon) greater than 50000 nM, a GI50 (OVCAR-4 ovarian) of 1710 nM and a TGI (OVCAR-4 ovarian) of 14600 nM. For the same compound, the GI50 (SK-MEL-5 melanoma) was 1060 nM, the TGI (SK-MEL-5 melanoma) was 7900 nM and the GI50 (M14 melanoma) was 124 nM. For the same compound, the TGI (M14 melanoma) was 5350 nM, the GI50 (IGROV1 ovarian) was 318 nM and the TGI (IGROV1 ovarian) was greater than 40200 nM. For the same compound, the GI50 (SK-OV-3 ovarian) was greater than 21100 nM, the TGI (SK-OV-3 ovarian) was greater than 50000 nM and the GI50 (MALME-3M melanoma) was 70.8 nM. For the same compound, the TGI (MALME-3M melanoma) was 1830 nM, the GI50 (UACC-257 melanoma) was 1200 nM and the TGI (UACC-257 melanoma) was 14400 nM. The GI50 (LOX IMVI melanoma) was 153 nM, the TGI (LOX IMVI melanoma) was 8930 nM and the GI50 (KM12 colon) was 5 nM. It also gave a TGI (KM12 colon) of 9240 nM, a GI50 (CCRF-CEM leukemia) of 1970 nM and a TGI (CCRF-CEM leukemia) of 13100 nM. It also gave a GI50 (DU-145 prostate) of 2430 nM, a TGI (DU-145 prostate) of 10100 nM and a GI50 (RPMI-8226 leukemia) of 2550 nM. The TGI (RPMI-8226 leukemia) was 23100 nM, the GI50 (CAKI-1 renal) was 1560 nM and the TGI (CAKI-1 renal) was 9250 nM. It also gave a GI50 (SK-MEL-28 melanoma) of 372 nM, a TGI (SK-MEL-28 melanoma) of 1290 nM and a GI50 (U251 CNS) of 1080 nM. It also gave a TGI (U251 CNS) of 2810 nM, a GI50 (MDA-MB-231 breast) of 158 nM and a TGI (MDA-MB-231 breast) of 3910 nM. It also gave a GI50 (HCT-15 colon) of 1690 nM, a TGI (HCT-15 colon) of 12900 nM and a GI50 (OVCAR-5 ovarian) of 640 nM. For the same compound, the TGI (OVCAR-5 ovarian) was 1730 nM, the GI50 (HT29 colon) was 112 nM and the TGI (HT29 colon) was 6010 nM. The GI50 (SW-620 colon) was 692 nM, the TGI (SW-620 colon) was 6250 nM and the GI50 (UO-31 renal) was 412 nM. The TGI (UO-31 renal) was 1220 nM, the GI50 (NCI-H522 lung) was 7810 nM and the TGI (NCI-H522 lung) was 32900 nM. It also gave a GI50 (A498 renal) of 680 nM, a TGI (A498 renal) of 3040 nM and a GI50 (NCI-H23 lung) of 1480 nM. For the same compound, the TGI (NCI-H23 lung) was 12500 nM, the GI50 (T-47D breast) was greater than 50000 nM and the TGI (T-47D breast) was greater than 50000 nM. It also gave a GI50 (RXF 393 renal) of 488 nM, a TGI (RXF 393 renal) of 1280 nM and a GI50 (OVCAR-3 ovarian) of 11400 nM. For the same compound, the TGI (OVCAR-3 ovarian) was greater than 50000 nM, the GI50 (A549 NSCLC) was 6590 nM and the TGI (A549 NSCLC) was greater than 26900 nM. For the same compound, the GI50 (NCI/ADR-RES ovarian) was 10300 nM, the TGI (NCI/ADR-RES ovarian) was greater than 34700 nM and the GI50 (HOP-62 NSCLC) was 1190 nM. The TGI (HOP-62 NSCLC) was greater than 18800 nM, the GI50 (SK-MEL-2 melanoma) was 3590 nM and the TGI (SK-MEL-2 melanoma) was 14600 nM. For the same compound, the GI50 (SNB-19 CNS) was 3710 nM, the TGI (SNB-19 CNS) was 14700 nM and the GI50 (HCT-116 colon) was 498 nM. It also gave a TGI (HCT-116 colon) of 9880 nM, a GI50 (ACHN renal) of 449 nM and a TGI (ACHN renal) of 3540 nM. It also gave a GI50 (SN12C renal) of 490 nM, a TGI (SN12C renal) greater than 25300 nM and a GI50 (NCI-H226 lung) of 383 nM. The TGI (NCI-H226 lung) was 2590 nM, the GI50 (NCI-H460 lung) was 1230 nM and the TGI (NCI-H460 lung) was 4460 nM. The GI50 (MOLT-4 leukemia) was 906 nM, the TGI (MOLT-4 leukemia) was 26800 nM and the GI50 (OVCAR-8 ovarian) was 9330 nM. The TGI (OVCAR-8 ovarian) was greater than 28900 nM, the GI50 (HOP-92 NSCLC) was 62.9 nM and the TGI (HOP-92 NSCLC) was 796 nM. The GI50 (HS 578T breast) was 269 nM, the TGI (HS 578T breast) was 1500 nM and the GI50 (SR leukemia) was 707 nM. For the same compound, the TGI (SR leukemia) was 2860 nM, the GI50 (MDA-MB-435) was 240 nM and the TGI (MDA-MB-435) was 6990 nM. The GI50 (SNB-75 CNS) was 801 nM, the TGI (SNB-75 CNS) was 8900 nM and the GI50 (SF-295 CNS) was 9470 nM. For the same compound, the TGI (SF-295 CNS) was greater than 33700 nM, the GI50 (K-562 leukemia) was 5 nM and the TGI (K-562 leukemia) was 749 nM. For the same compound, the GI50 (HL-60(TB) leukemia) was 1070 nM, the TGI (HL-60(TB) leukemia) was greater than 50000 nM and the GI50 (SF-539 CNS) was 974 nM. For the same compound, the TGI (SF-539 CNS) was 7910 nM, the GI50 (SF-268 CNS) was 2680 nM and the TGI (SF-268 CNS) was greater than 29600 nM. It also gave a GI50 (EKVX NSCLC) of 3660 nM, a TGI (EKVX NSCLC) of 19400 nM and a GI50 (COLO 205 colon) of 208 nM. It also gave a TGI (COLO 205 colon) greater than 50000 nM, a GI50 (MCF7 breast) of 1430 nM and a TGI (MCF7 breast) of 22200 nM. For the same compound, the GI50 (BT-549 breast) was 4220 nM, the TGI (BT-549 breast) was 16400 nM and the GI50 (PC-3 prostate) was 2690 nM. The TGI (PC-3 prostate) was 9170 nM, the GI50 (TK-10 renal) was 3220 nM and the TGI (TK-10 renal) was 12400 nM.
